Laboratory results from patent US12590067B2, “Herbicidal cyclohexanedione derivatives” (SYNGENTA CROP PROTECTION AG, priority 2019, dated 2026).

Legend:
Assay in all cases: Glasshouse herbicidal test, pre- and post-emergence, percentage damage to the plant
Type in all cases: in vivo
[1] = test system: Lolium perenne (LOLPE); details: 250 g/h, evaluated after 13 days; for LOLPE POST percentage damage caused to the plant (five-point scale): post-emergence; for LOLPE PRE percentage damage caused to the plant (five-point scale): pre-emergence
Outline: (§1)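 Spraying at 250 g/h took place either pre-emergence (one day after sowing) or post-emergence (after eight days' cultivation). Percentage damage was evaluated 13 days afterwards and binned into five classes, 1=0-19% up to 5=80-100%.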

[2] = test system: Avena fatua (AVEFA); details: 250 g/h, evaluated after 13 days; for AVEFA POST percentage damage caused to the plant (five-point scale): post-emergence; for AVEFA PRE percentage damage caused to the plant (five-point scale): pre-emergence
Outline: as §1

[3] = test system: Setaria faberi (SETFA); details: 250 g/h, evaluated after 13 days; for SETFA POST percentage damage caused to the plant (five-point scale): post-emergence; for SETFA PRE percentage damage caused to the plant (five-point scale): pre-emergence
Outline: as §1

[4] = test system: Echinochloa crus-galli (ECHCG); details: 250 g/h, evaluated after 13 days; for ECHCG POST percentage damage caused to the plant (five-point scale): post-emergence; for ECHCG PRE percentage damage caused to the plant (five-point scale): pre-emergence
Outline: as §1

[5] = test system: Alopecurus myosuroides (ALOMY); details: 250 g/h, evaluated after 13 days; for ALOMY POST percentage damage caused to the plant (five-point scale): post-emergence; for ALOMY PRE percentage damage caused to the plant (five-point scale): pre-emergence
Outline: as §1

CC#Cc1cc(Cl)c(C2C(=O)CC3(CCN(C(C)=O)CC3)CC2=O)c(Cl)c1 [Compound A14]
5 (5=80-100%): LOLPE POST percentage damage caused to the plant (five-point scale) [1] | LOLPE PRE percentage damage caused to the plant (five-point scale) [1] | AVEFA POST percentage damage caused to the plant (five-point scale) [2] | AVEFA PRE percentage damage caused to the plant (five-point scale) [2] | SETFA POST percentage damage caused to the plant (five-point scale) [3] | SETFA PRE percentage damage caused to the plant (five-point scale) [3] | ECHCG POST percentage damage caused to the plant (five-point scale) [4] | ECHCG PRE percentage damage caused to the plant (five-point scale) [4] | ALOMY POST percentage damage caused to the plant (five-point scale) [5] | ALOMY PRE percentage damage caused to the plant (five-point scale) [5]

CC#Cc1cc(Cl)c(C2C(=O)CC3(CCN(S(=O)(=O)CC)CC3)CC2=O)c(OC)c1 [Compound A2]
5 (5=80-100%): LOLPE POST percentage damage caused to the plant (five-point scale) [1] | LOLPE PRE percentage damage caused to the plant (five-point scale) [1] | AVEFA POST percentage damage caused to the plant (five-point scale) [2] | AVEFA PRE percentage damage caused to the plant (five-point scale) [2] | SETFA POST percentage damage caused to the plant (five-point scale) [3] | SETFA PRE percentage damage caused to the plant (five-point scale) [3] | ECHCG POST percentage damage caused to the plant (five-point scale) [4] | ECHCG PRE percentage damage caused to the plant (five-point scale) [4] | ALOMY POST percentage damage caused to the plant (five-point scale) [5] | ALOMY PRE percentage damage caused to the plant (five-point scale) [5]
